In test [1] the target is T1, human orexin-1 (hOX1) receptors (Homo sapiens, UniProt O43613).
T1 construct: expressed in transfected cells
T1 sequence (O43613 1-425): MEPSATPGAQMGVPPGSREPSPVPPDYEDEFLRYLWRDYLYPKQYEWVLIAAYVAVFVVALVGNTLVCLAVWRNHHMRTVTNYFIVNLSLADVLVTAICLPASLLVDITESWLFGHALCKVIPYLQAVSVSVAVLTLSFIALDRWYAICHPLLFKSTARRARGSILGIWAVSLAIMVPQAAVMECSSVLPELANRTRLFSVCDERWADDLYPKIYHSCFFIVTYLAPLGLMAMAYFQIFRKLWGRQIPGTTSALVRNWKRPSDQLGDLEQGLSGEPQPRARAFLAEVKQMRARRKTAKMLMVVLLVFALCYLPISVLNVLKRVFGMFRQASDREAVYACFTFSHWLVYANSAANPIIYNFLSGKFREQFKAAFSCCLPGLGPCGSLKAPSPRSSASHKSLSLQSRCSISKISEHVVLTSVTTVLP
Put plainly: Intracellular Ca2+ mobilization assay (FLIPR), CHO(dHFr-) cells expressing hOX1. The conditions noted are these: antagonism of orexin-A at EC80; Kb=IC50/(1+[A]/EC50); CHO(dHFr-)-OX1R cells. Type of test: cell-based. On the procedure: (§1) Intracellular Ca^2+ Mobilization Assay
(§2) The Chinese Hamster Ovary (dHFr-) mutant cell line stably expressing human orexin-1 (hOX1) or human orexin-2 (hOX2) receptors were maintained in Dulbecco's Modified Eagle Medium (1X) with GlutaMax™ 1, 4500 mg/L D-Glucose and Sodium Pyruvate (Catalog No. 31966-021, Invitrogen, Carlsbad, Calif.), 5% dialyzed fetal calf serum (Catalog No. 26400-044), 100 μg/ml penicillin and 100 μg/ml streptomycin. The cells were seeded at 5×10^4 cells/well in the poly-D-lysine treated, 96-well, black/clear-bottomed plates (Catalog No. BD356640, BD Biosciences, Palo Alto, Calif.). 24 h later, the cells were loaded for 1 h at 37° C. with 4 μM Flou-4 acetoxymethyl ester (Catalog No. F-14202, Molecular Probes, Eugene, Oreg.) in FLIPR buffer (1×HBSS, 20 mM HEPES, 2.5 mM Probenecid). Hanks' Balanced Salt Solution (HBSS) (10X) (catalog No. 14065-049) and HEPES (1M) (catalog No. 15630-056) were purchased from Invitrogen, Carlsbad, Calif. Probenecid (250 mM) (catalog No. P8761) was from Sigma, Buchs, Switzerland. The cells were washed five times with FLIPR buffer to remove excess dye and intracellular calcium mobilization, [Ca^2+]i were measured using a Fluorometric Imaging Plate Reader (FLIPR-96, Molecular Devices, Menlo Park, Calif.) as described previously (Malherbe et al., Mol. Pharmacol., 64, 823-832, 2003). Orexin A (catalog No. 1455, Toris Cookson Ltd, Bristol, UK) was used as agonist. Orexin A ([…] stock solution in DMSO) was diluted in FLIPR buffer+0.1% BSA. The EC50 and EC80 values of orexin-A were measured daily from standard agonist concentration-response curves in CHO(dHFr-)-OX1R and -OX2R cell lines. All compounds were dissolved in 100% DMSO. Inhibition curves were determined by addition of 11 concentrations (0.0001-10 μM) of inhibitory compounds and using EC80 value of orexin-A as agonist (a concentration which gave 80% of max agonist response, determined daily). The antagonists were applied 25 min (incubation at 37° C.) before the application of the agonist. Responses were measured as peak increase in fluorescence minus basal, normalized to the maximal stimulatory effect induced by EC80 value of orexin-A or orexin-B. Inhibition curves were fitted according to the Hill equation: y=100/(1+(x/IC50)^nH), where nH=slope factor using Excel-fit 4 software (Microsoft).
(§3) Kb values were calculated according to the following equation Kb=IC50/(1+[A]/EC50) where A is the concentration of agonist added which is very close to agonist EC80 value, and IC50 and EC50 values were derived from the antagonist inhibition and orexin-A or B agonist curves, respectively.
For orientation: Calcium flux is commonly read through the fluorescence of an indicator in the cells.

The target of test [2] is T2, human orexin-2 (hOX2) receptors (Homo sapiens, UniProt O43614).
T2 construct: expressed in transfected cells
T2 sequence (O43614 1-444): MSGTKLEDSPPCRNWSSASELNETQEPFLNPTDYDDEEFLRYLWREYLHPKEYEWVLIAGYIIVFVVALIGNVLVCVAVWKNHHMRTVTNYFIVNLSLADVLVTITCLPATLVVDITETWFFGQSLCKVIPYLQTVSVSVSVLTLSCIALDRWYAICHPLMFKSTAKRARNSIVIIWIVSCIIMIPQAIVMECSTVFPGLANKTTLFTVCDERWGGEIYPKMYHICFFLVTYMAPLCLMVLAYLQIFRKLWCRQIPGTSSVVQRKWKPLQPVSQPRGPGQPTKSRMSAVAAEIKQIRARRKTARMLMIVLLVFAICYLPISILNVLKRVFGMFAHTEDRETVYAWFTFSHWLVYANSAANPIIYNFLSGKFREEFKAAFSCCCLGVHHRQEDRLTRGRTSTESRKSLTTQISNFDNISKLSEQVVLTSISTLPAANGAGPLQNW
Put plainly: Intracellular Ca2+ mobilization assay (FLIPR), CHO(dHFr-) cells expressing hOX2. The test is classed as cell-based. To be noted: antagonism of orexin-A at EC80; Kb=IC50/(1+[A]/EC50); CHO(dHFr-)-OX2R cells. The protocol:
as §1, §2, §3

For the compound `CNC(=O)C(c1ccccc1)N1CCc2sc(C)cc2C1CCc1ccc(C(F)(F)F)cc1` (single isomer, unassigned) [Example 4, N-Methyl-2-{2-methyl-4-[2-(4-trifluoromethyl-phenyl)-ethyl]-6,7-dihydro-4H-thieno[3,2-c]pyridin-5-yl}-2-phenyl-acetamide], the antagonist equilibrium constant (Kb) in test [1] is 0.047 µM; in test [2], 0.0204 µM.

Turning to `CNC(=O)C(c1ccccc1)N1CCc2sc(C)cc2C1CCc1ccc(C(F)(F)F)cc1` (single isomer, unassigned) [Example 6, N-Methyl-2-{2-methyl-4-[2-(4-trifluoromethyl-phenyl)-ethyl]-6,7-dihydro-4H-thieno[3,2-c]pyridin-5-yl}-2-phenyl-acetamide], the antagonist equilibrium constant (Kb) in test [1] was determined as 0.0401 µM; in test [2] it was 0.0091 µM.

Regarding `CNC(=O)C(c1ccccc1)N1CCc2sc(C)cc2C1CCc1ccc(OC)cc1` (single isomer, unassigned) [Example 7, 2-{4-[2-(4-Methoxy-phenyl)-ethyl]-2-methyl-6,7-dihydro-4H-thieno[3,2-c]pyridin-5-yl}-N-methyl-2-phenyl-acetamide], the Kb was found to be 0.0311 µM in test [1] and 0.0266 µM in test [2].

For the compound `CNC(=O)C(c1ccccc1)N1CCc2sc(C)cc2C1CCc1ccc(OC)cc1` (single isomer, unassigned) [Example 8, 2-{4-[2-(4-Methoxy-phenyl)-ethyl]-2-methyl-6,7-dihydro-4H-thieno[3,2-c]pyridin-5-yl}-N-methyl-2-phenyl-acetamide], the Kb worked out at 0.0135 µM in test [1] and 0.0075 µM in test [2].

As to `CNC(=O)C(c1ccccc1)N1CCc2sc(C)cc2C1CCc1ccc(OC)cc1` (single isomer, unassigned) [Example 9, 2-{4-[2-(4-Methoxy-phenyl)-ethyl]-2-methyl-6,7-dihydro-4H-thieno[3,2-c]pyridin-5-yl}-N-methyl-2-phenyl-acetamide], the antagonist dissociation constant (Kb) was 0.408 µM in test [1] and 0.0566 µM in test [2].

Consider `CNC(=O)C(c1ccccc1)N1CCc2ncccc2C1CCc1ccc(OC)cc1` (single isomer, unassigned) [Example 11, 2-{5-[2-(4-Methoxy-phenyl)-ethyl]-7,8-dihydro-5H-[1,6]naphthyridin-6-yl}-N-methyl-2-phenyl-acetamide], for which the Kb in test [1] was 0.164 µM; in test [2], 0.0215 µM.

Take `CNC(=O)C(c1ccccc1)N1CCc2sc(C)c(C)c2C1CCc1ccc(OC)cc1` (single isomer, unassigned) [Example 13, 2-{4-[2-(4-Methoxy-phenyl)-ethyl]-2,3-dimethyl-6,7-dihydro-4H-thieno[3,2-c]pyridin-5-yl}-N-methyl-2-phenyl-acetamide]: the Kb in test [1] came to 0.0402 µM; in test [2], 0.005 µM.

Regarding `CNC(=O)C(c1ccccc1)N1CCc2sc(C)c(C)c2C1CCc1ccc(OC)cc1` (single isomer, unassigned) [Example 14, 2-{4-[2-(4-Methoxy-phenyl)-ethyl]-2,3-dimethyl-6,7-dihydro-4H-thieno[3,2-c]pyridin-5-yl}-N-methyl-2-phenyl-acetamide], the figures for the antagonist equilibrium constant (Kb) in test [1] and in test [2] were 0.0221 µM and 0.0036 µM, respectively.

Regarding `CNC(=O)C(c1ccccc1)N1CCc2sc(C)c(C)c2C1CCc1ccc(OC)cc1` (single isomer, unassigned) [Example 15, 2-{4-[2-(4-Methoxy-phenyl)-ethyl]-2,3-dimethyl-6,7-dihydro-4H-thieno[3,2-c]pyridin-5-yl}-N-methyl-2-phenyl-acetamide], the Kb in test [1] stood at 0.408 µM; in test [2] it was 0.0169 µM.

Turning to `CNC(=O)C(c1ccccc1)N1CCc2ccsc2C1CCc1ccc(C(F)(F)F)cc1` (single isomer, unassigned) [Example 16, N-Methyl-2-phenyl-2-{7-[2-(4-trifluoromethyl-phenyl)-ethyl]-4,7-dihydro-5H-thieno[2,3-c]pyridin-6-yl}-acetamide], the Kb amounted to 0.0524 µM in test [1] and 0.0148 µM in test [2].

Take `CNC(=O)C(c1ccccc1)N1CCc2sc(Cl)cc2C1CCc1ccc(OC)cc1` (single isomer, unassigned) [Example 17, 2-{2-Chloro-4-[2-(4-methoxy-phenyl)-ethyl]-6,7-dihydro-4H-thieno[3,2-c]pyridin-5-yl}-N-methyl-2-phenyl-acetamide]: the Kb in test [1] is 0.0162 µM; in test [2], 0.0462 µM.

For `CNC(=O)C(c1ccccc1)N1CCc2sc(Cl)cc2C1CCc1ccc(OC)cc1` (single isomer, unassigned) [Example 18, 2-{2-Chloro-4-[2-(4-methoxy-phenyl)-ethyl]-6,7-dihydro-4H-thieno[3,2-c]pyridin-5-yl}-N-methyl-2-phenyl-acetamide], the Kb in test [1] was determined as 0.0095 µM; in test [2], 0.032 µM.

Consider `CNC(=O)C(c1ccccc1)N1CCc2ncccc2C1CCc1ccc(OC)cc1` (single isomer, unassigned) [Example 22, 2-{5-[2-(4-Methoxy-phenyl)-ethyl]-7,8-dihydro-5H-[1,6]naphthyridin-6-yl}-N-methyl-2-phenyl-acetamide], for which the values for the Kb in test [1] and in test [2] were 0.105 µM and 0.038 µM, respectively.

On to `CNC(=O)C(c1ccccc1)N1CCc2ncccc2C1CCc1cccc(OC)c1` (single isomer, unassigned) [Example 23, 2-{5-[2-(3-Methoxy-phenyl)-ethyl]-7,8-dihydro-5H-[1,6]naphthyridin-6-yl}-N-methyl-2-phenyl-acetamide], for which the values for the antagonist dissociation constant (Kb) in test [1] and in test [2] were 0.223 µM and 0.0852 µM, respectively.

Regarding `CNC(=O)C(c1ccccc1)N1CCc2ncccc2C1CCc1cccc(OC)c1` (single isomer, unassigned) [Example 25, 2-{5-[2-(3-Methoxy-phenyl)-ethyl]-7,8-dihydro-5H-[1,6]naphthyridin-6-yl}-N-methyl-2-phenyl-acetamide], the antagonist equilibrium constant (Kb) in test [1] was found to be 0.108 µM; in test [2], 0.0296 µM.

For the compound `CNC(=O)C(c1ccccc1)N1CCc2ncccc2C1CCc1ccc(C(F)(F)F)cc1` (single isomer, unassigned) [Example 26, N-Methyl-2-phenyl-2-{5-[2-(4-trifluoromethyl-phenyl)-ethyl]-7,8-dihydro-5H -[1,6]naphthyridin-6-yl}-acetamide], the Kb in test [1] was 0.348 µM; in test [2] it was 0.0356 µM.

Take `CNC(=O)C(c1ccccc1)N1CCc2ncccc2C1CCc1ccc(F)cc1` (single isomer, unassigned) [Example 28, 2-{5-[2-(4-Fluoro-phenyl)-ethyl]-7,8-dihydro-5H-[1,6]naphthyridin-6-yl}-N-methyl-2-phenyl-acetamide]: the antagonist equilibrium constant (Kb) in test [1] amounted to 0.301 µM; in test [2] it was 0.0601 µM.

By Kb is commonly meant the affinity of an antagonist, worked out from how it opposes an agonist.
